The structures appear in SMILES notation. Like-named read-outs stand apart in the source and are kept apart here.

The experiment deals with adenovirus type 6 (ADV6). In words: Evaluation of anti-adenovirus activity (CRL-11516 cells infected with ADV6, anti-hexon staining). In kind it is cell-based. The settings on record: read-out: Anti-AdV activity EC50.

On to `Nc1nc2c(ncn2[C@H]2C[C@@H](CO)C2)c(=O)[nH]1` [Comparative Example 1, 2-Amino-9-(cis-3-(hydroxymethyl)cyclobutyl)-1,9-dihydro-6H-purin-6-one, reference compound], for which the EC50 (commonly the concentration giving half of the maximal effect) (Human mastadenovirus C, CRL-11516 cells, ADV6 (50TCID50), 48 hours, 50% reduction of dark brown-stained cells) was over 10 µM.
Take `COC(=O)[C@H](C)NP(=O)(OC[C@H]1C[C@@H](n2cnc3c(OC)nc(N)nc32)C1)Oc1ccc(Br)cc1` (stereo partly drawn) [Example 1-1, methyl (((cis-3-(2-amino-6-methoxy-9H-purin-9-yl)cyclobutyl)methoxy)(4-bromophenoxy)phosphoryl)-L-alaninate]: the EC50 (Human mastadenovirus C, 48 h) was under 0.1 µM.
In the case of `COC(=O)[C@H](C)NP(=O)(OC[C@H]1C[C@@H](n2cnc3c(OC)nc(N)nc32)C1)Oc1cccc2ccccc12` (stereo partly drawn) [Example 1-2-1, methyl (((cis-3-(2-amino-6-methoxy-9H-purin-9-yl)cyclobutyl)methoxy)(naphthalen-1-yloxy)phosphoryl)-L-alaninate], the EC50 (Human mastadenovirus C, 48 h) lay within 0.1 to 1 µM.
Consider `COC(=O)[C@H](C)NP(=O)(OC[C@H]1C[C@@H](n2cnc3c(OC)nc(N)nc32)C1)Oc1ccc(Cl)cc1` (stereo partly drawn) [Example 1-2-2, Methyl (((cis-3-(2-amino-6-methoxy-9H-purin-9-yl)cyclobutyl)methoxy)(4-chloro-phenoxy)phosphoryl)-L-alaninate], for which the EC50 was under 0.1 µM.
For `COc1nc(N)nc2c1ncn2[C@H]1C[C@@H](COP(=O)(OCCSC(=O)C(C)(C)C)Oc2ccccc2)C1` (stereo partly drawn) [Example 3-1, S-(2-((((cis-3-(2-amino-6-methoxy-9H-purin-9-yl)cyclobutyl)methoxy)(phenoxy)phosphoryl)oxy)ethyl)2,2-dimethylpropanethioate], where the note is “Human mastadenovirus C, 48 h”, the half-maximal effective concentration (EC50) is 1 to 10 µM.
Same read-out and setting: the value for `COc1nc(N)nc2c1ncn2[C@H]1C[C@@H](COP(=O)(N[C@@H](C)C(=O)OCc2ccccc2)Oc2ccccc2)C1` (stereo partly drawn) [Example 3-2-1, Benzyl (((cis-3-(2-amino-6-methoxy-9H-purin-9-yl)cyclobutyl)methoxy) (phenoxy)phosphoryl)-L-alaninate] was 0.1 to 1 µM.
Turning to `COC(=O)[C@H](C)NP(=O)(OC[C@H]1C[C@@H](n2cnc3c(OC)nc(N)nc32)C1)Oc1ccccc1` (stereo partly drawn) [Example 3-2-2, Methyl (((cis-3-(2-amino-6-methoxy-9H-purin-9-yl)cyclobutyl)methoxy)(phenoxy)phosphoryl)-L-alaninate], where the note is “Human mastadenovirus C, 48 h”, the EC50 lay within 0.1 to 1 µM.
With `COc1nc(N)nc2c1ncn2[C@H]1C[C@@H](COP(=O)(N[C@@H](C)C(=O)OC(C)C)Oc2ccccc2)C1` (stereo partly drawn) [Example 3-2-4, Isopropyl (((cis-3-(2-amino-6-methoxy-9H-purin-9-yl)cyclobutyl)methoxy) (phenoxy)phosphoryl)-L-alaninate], the EC50 (Human mastadenovirus C, 48 h) was 1 to 10 µM.
Still for that read-out and setting: to `COC(=O)[C@H](C)NP(=O)(OC[C@H]1C[C@@H](n2cnc3c(OC)nc(N)nc32)C1)Oc1ccc(Cl)cc1` (stereo partly drawn) [Example 8-2-1, Methyl (((cis-3-(2-amino-6-methoxy-9H-purin-9-yl)cyclobutyl)methoxy)(4-chlorophenoxy)phosphoryl)-L-alaninate] belongs under 0.1 µM.
In the case of `COC(=O)[C@H](C)NP(=O)(OC[C@H]1C[C@@H](n2cnc3c(OC)nc(N)nc32)C1)Oc1ccc(Cl)cc1` (stereo partly drawn) [Example 8-2-2, Methyl (((cis-3-(2-amino-6-methoxy-9H-purin-9-yl)cyclobutyl)methoxy)(4-chlorophenoxy)phosphoryl)-L-alaninate], the EC50 fell in the range of 0.1 to 1 µM.

The values are drawn from US12202850B2, “Cyclobutyl purine derivative or salt thereof” (FUJIFILM Corporation, priority 2018, dated 2025).
